Source: patent US20220193066A1, “QUINOLINE DERIVATIVE USED FOR COMBINATION TREATMENT OF SMALL CELL LUNG CANCER” (CHIA TAI TIANQING PHARMACEUTICAL GROUP CO., LTD., priority 2019, published 2022)

Assays:
Type in all cases: in vivo, human
small cell lung cancer [1] = experiment: Clinical study of anlotinib in combination with irinotecan in relapsed small cell lung cancer (Example 2); conditions: anlotinib hydrochloride capsule 12 mg qd po d1-14 in combination with irinotecan 60-80 mg/m^2 i.v. d1 and d8, q3w
Excerpt: Patients who have been histopathologically and cytologically diagnosed with small cell lung cancer, have previously received 1 systemic chemotherapy adopting platinum-based chemotherapy regimens, and relapsed or failed after treatment, excluding patients with non-small cell lung cancer (including small cell and non-small cell mixed types), were divided into a combination administration group and a single-drug chemotherapy control group. The administration regimens are detailed below.
Combination administration group: anlotinib hydrochloride capsule 12 mg qd po d1-14 and irinotecan 60-80 mg/m^2 i.v. d1 and d8; q3w, no more than 6 chemotherapy dosing cycles.
Single-drug chemotherapy control group: irinotecan 60-80 mg/m^2 i.v. d1 and d8; q3w, no more than 6 chemotherapy dosing cycles.
Patients who achieved complete response (CR), partial response (PR), and stable disease (SD) continued to be administered until progressive disease (PD), intolerable toxicity, or patients who required withdrawal or achieved progressive disease (PD) were discontinued. The efficacy evaluation observation indexes include progression-free survival (PFS), overall survival (OS), objective response rate (ORR), disease control rate (DCR), duration of response (DOR), quality of life score and drug safety.

[2] = tested on: small cell lung cancer (including ED-SCLC and LD-SCLC); experiment: Clinical trial of EP or EC regimen (etoposide+cisplatin/carboplatin)+anlotinib in small cell lung cancer patients (Example 1)
Excerpt: Patients who were pathologically diagnosed with small cell lung cancer (including ED-SCLC and LD-SCLC) with measurable lesions were divided into the following groups: two combination administration groups adopting a combination of either EP or EC regimen (etoposide+cisplatin/carboplatin)+anlotinib, and a control group adopting either EP or EC alone (etoposide+cisplatin/carboplatin). The administration regimens are detailed below.
In the combination administration group, patients received etoposide: 100 mg/m^2, i.v., for 120 min, administered at d1-3 of each 21-day dosing cycle; cisplatin: 75 mg/m^2, or carboplatin: AUC 5, i.v., for 120 min, administered at d1 of each 21-day dosing cycle; anlotinib, 12 mg/day, administered orally on an empty stomach in the morning at d1-14 of each 21-day dosing cycle. After 4-6 dosing cycles of combination treatment, anlotinib was used for maintenance treatment: 12 mg/day, administered orally on an empty stomach in the morning at d1-14 of each 21-day dosing cycle until progressive disease.
In the control group, patients received etoposide: 100 mg/m^2, i.v., for 120 min, administered at d1-3 of each 21-day dosing cycle; cisplatin: 75 mg/m^2 or carboplatin: AUC 5, i.v., for 120 min, administered at d1 of each 21-day dosing cycle.
The observation indexes are as follows: primary endpoint: progression-free survival (PFS); secondary endpoint: objective response rate (ORR), overall survival (OS), disease control rate (DCR), safety, and tolerability.
The clinical trial was implemented, and 31 patients were enrolled between February 2018 and October 2019.

small cell lung cancer [3] = experiment: Clinical study of anlotinib in combination with sintilimab in relapsed small cell lung cancer (Example 5); conditions: anlotinib hydrochloride capsules 12 mg qd d1-14 in combination with sintilimab 200 mg i.v. d1, 21-day cycle
Description: Patients who have been histologically or cytologically confirmed pathologically diagnosed with small cell lung cancer, have previously received at least one systemic chemotherapy regimen and have relapsed were administered with anlotinib in combination with sintilimab. The administration regimens are detailed below.
Anlotinib hydrochloride capsules: once daily, oral administration before breakfast, 12 mg each time, administered at d1-14 of each 21-day dosing cycle, consecutive 2-week treatment and 1-week interruption.
Sintilimab: 200 mg, i.v. infusion, administered d1 of each 21-day dosing cycle.
All patients continued for a treatment period of up to 12 months, or until progressive disease, development of an intolerable toxic response, withdrawal of informed consent, death, or other event requiring discontinuation of treatment specified in the protocol, whichever occurred first.
The efficacy evaluation observation indexes include progression-free survival (PFS), overall survival (OS), objective response rate (ORR=CR+PR), disease control rate (DCR=CR+PR+SD) and drug safety.

[4] = tested on: extensive-stage small cell lung cancer; experiment: Clinical study of anlotinib in combination with etoposide in extensive-stage small cell lung cancer after second-line failure (Example 3); conditions: anlotinib hydrochloride capsules 12 mg qd d1-14 in combination with etoposide soft capsules 100 mg qd d1-10, 21-day cycle
Description: Patients with extensive-stage small cell lung cancer after the pathological diagnosis of small cell lung cancer and failure with second-line chemotherapy (having received two previous chemotherapy regimens) were administered with anlotinib in combination with etoposide.
The administration regimens are detailed below.
Etoposide soft capsules: once daily, oral administration before breakfast, 100 mg (by weight of etoposide comprised therein) each time, administered at d1-10 of each 21-day dosing cycle.
Anlotinib hydrochloride capsules: once daily, oral administration before breakfast, 12 mg each time, administered at d1-14 of each 21-day dosing cycle.
The interval between the two drugs was more than half an hour. If there was a missed dose, the interval needed to be confirmed that it was not shorter than 12 hours before the next dose, otherwise no more doses would be taken. During the administration, dosage adjustments could be made according to the degree of drug-related toxicity and possible therapeutic benefit of the patient. The dose could be adjusted to the following 2 levels for anlotinib: 10 mg and 8 mg. If a reduction of more than 2 dose levels was required, the treatment was discontinued. The dose of etoposide could be reduced to 50 mg. […]

[5] = anlotinib 12 mg/day in combination with EP or EC regimen, 31 patients
[6] = anlotinib 12 mg/day in combination with EP or EC regimen, of 31 patients
[7] = combination of anlotinib and EP or EC regimen

COc1cc2c(Oc3ccc4[nH]c(C)cc4c3F)ccnc2cc1OCC1(N)CC1 [anlotinib, 1-[[[4-(4-fluoro-2-methyl-1H-indol-5-yl)oxy-6-methoxyquinolin-7-yl]oxy]methyl]cyclopropylamine]
clinical benefits (small cell lung cancer [1]): had clinical benefits
disease control rate (DCR) [2, 5]: 100%
objective response rate (ORR) [2, 5]: 74.2%
patients with complete response (CR) [2, 6]: 3 patients
patients with partial response (PR) [2, 6]: 20 patients
patients with progressive disease (PD) [2, 6]: 0 patients
median PFS (progression-free survival) ([2]; anlotinib 12 mg/day po d1-14 q21d in combination with EP or EC regimen (etoposide + cisplatin/carboplatin), then anlotinib maintenance, 31 patients): 8.9 months
clinical efficacy [2, 7]: good
safety [2, 7]: good
clinical benefits (small cell lung cancer [3]): had clinical benefits
progression-free survival to date (small cell lung cancer [3]): up to 6 months
clinical benefits [4]: had clinical benefits
